This is an account of results in US12465603B2, “Phthalazinone based modulators for the treatment of disease” (Soley Therapeutics, Inc., priority 2022, dated 2025).

For assay [1], the system named is PA1 (ECACC, 90013101) cells. The experiment in a line: Cell viability assay (Cell Titre Glo, 72 hours) in PA1 cells. Type of assay: cell-based. Particulars: Homo sapiens, PA-1. As for the experimental part: (§1) Example 31: Cell Viability Assays
(§2) Phthalazinone based modulators as described herein were dispensed into 384 well CulturPlates™ (PerkinElmer) using Echo 555 acoustic dispensing in 10-point dose response curves at a final top concentration of 30 μM following a 1 in 3 dilution series. A2058 (ATCC, CRL-11147) or PA1 (ECACC, 90013101) cells were added directly to a compound at a density of 5000 cells per well in a final volume of 50 μL and incubated for 72 hours at 37° C., 5% CO2. Viability was assessed using Cell Titre Glo® (Promega) according to the manufacturer's instructions (25 μL per well) and IC50 curves were generated for each inhibitor using IDBS ActivityBase data analysis software.

Assay [2] relates to A2058 (ATCC, CRL-11147) cells. Put plainly: Cell viability assay (Cell Titre Glo, 72 hours) in A2058 cells. Type of assay: cell-based. To be noted: Homo sapiens. The method, then:
as §1, §2

On to `COCc1cncc(N2CCN(C(=O)c3nn(C)c(=O)c4ccc(F)cc34)CC2)c1` [Compound 164], for which the IC50 in assay [1] and in assay [2] was more than 20 µM throughout.

As for `COc1cc(F)ccc1N1CCN(C(=O)c2nn(C)c(=O)c3ccncc23)CC1` [Compound 174], the half-inhibitory concentration (IC50) (usually the concentration at which inhibition is half-maximal) was in the range of 1 to 10 µM in assay [1] and 10 to 20 µM in assay [2].

Turning to `CCn1nc(C(=O)N2CCN(c3ccc(Cl)cc3OC)CC2)c2ccccc2c1=O` [Compound 117], the half-inhibitory concentration (IC50) in assay [1] and in assay [2] was not above 1 µM each time.

With `Cn1nc(C(=O)N2CCN(c3ccccc3)CC2)c2ccncc2c1=O` [Compound 171, 3-methyl-1-(4-phenylpiperazine-1-carbonyl)pyrido[3,4-d]pyridazin-4-one], the IC50 in assay [1] and in assay [2] was more than 20 µM in each case.

Regarding `COc1cc(N2CCN(C(=O)c3nn(C)c(=O)c4ccccc34)CC2)cnn1` [Compound 12], the concentration for half-maximal inhibition (IC50) in assay [1] and in assay [2] was 10 to 20 µM each time.

Take `Cn1nc(C(=O)N2CCN(c3cc(C#N)cc(C(F)F)c3)CC2)c2ccccc2c1=O` [Compound 201]: the IC50 in assay [1] and in assay [2] was not above 1 µM throughout.

For `CCn1nc(C(=O)N2CCN(c3cc(F)c(F)cc3OC)CC2)c2ccccc2c1=O` [Compound 144], the IC50 in assay [1] and in assay [2] was not above 1 µM in each case.

As for `CCn1nc(C(=O)N2CCN(c3cc(Cl)cc(C#N)c3)CC2)c2cc(F)ccc2c1=O` [Compound 237], the IC50 in assay [1] and in assay [2] was not above 1 µM in each case.

With `Cn1nc(C(=O)N2CCN(c3ncccc3C3CC3)CC2)c2ccccc2c1=O` [Compound 17], the IC50 in assay [1] and in assay [2] was not above 1 µM throughout.

As to `COc1cccc(N2CCN(C(=O)c3nn(C)c(=O)c4ncccc34)CC2)c1` [Compound 182, 5-(4-(3-methoxyphenyl)piperazine-1-carbonyl)-7-methylpyrido[2,3-d]pyridazin-8(7H)-one], the IC50 in assay [1] and in assay [2] was more than 20 µM throughout.

In the case of `Cc1cncc(N2CCN(C(=O)c3nn(C)c(=O)c4ccc(F)cc34)CC2)c1` [Compound 162], the IC50 in assay [1] was not above 1 µM; in assay [2] it was 1 to 10 µM.

In the case of `CCOc1ccc(F)cc1N1CCN(C(=O)c2nn(C)c(=O)c3ccccc23)CC1` [Compound 48], the IC50 in assay [1] and in assay [2] was not above 1 µM throughout.

On to `Cc1cc(C#N)cc(N2CCN(C(=O)c3nn(C)c(=O)c4ccncc34)CC2)c1` [Compound 214], for which the IC50 is not above 1 µM in assay [1] and 1 to 10 µM in assay [2].

`Cn1nc(C(=O)N2CCN(c3nccn4ccnc34)CC2)c2ccccc2c1=O` [Compound 196]: the IC50 in assay [1] and in assay [2] was more than 20 µM each time.

As for `O=C(c1nn(C2CC2)c(=O)c2ccccc12)N1CCN(c2ccccc2)CC1` [Compound 9, 2-cyclopropyl-4-(4-phenylpiperazine-1-carbonyl)phthalazin-1-one], the figures for the IC50 in assay [1] and in assay [2] were not above 1 µM and 1 to 10 µM, respectively.

`CCn1nc(C(=O)N2CCN(c3ncc(C#N)cc3C)CC2)c2ccccc2c1=O` [Compound 91]: the IC50 in assay [1] and in assay [2] was more than 20 µM in each case.

Consider `Cn1nc(C(=O)N2CCN(c3ccccc3)CC2)c2cc(F)ccc2c1=O` [Compound 156, 6-fluoro-2-methyl-4-(4-phenylpiperazine-1-carbonyl)phthalazin-1-one], for which the IC50 in assay [1] and in assay [2] was 1 to 10 µM each time.

As for `CCn1nc(C(=O)N2CCN(c3cc(F)cc(C#N)c3)CC2)c2cnccc2c1=O` [Compound 241, 3-(4-(2-ethyl-1-oxo-1,2-dihydropyrido[3,4-d]pyridazine-4-carbonyl)piperazin-1-yl)-5-fluorobenzonitrile], the IC50 in assay [1] and in assay [2] was not above 1 µM in each case.

In the case of `Cn1cc(C(=O)N2CCN(c3ccccc3)CC2)c2ccccc2c1=O` [Compound 1, 2-methyl-4-(4-phenylpiperazine-1-carbonyl)isoquinolin-1-one], the half-inhibitory concentration (IC50) in assay [1] and in assay [2] was 1 to 10 µM in each case.

Turning to `COc1cccc(N2CCN(C(=O)c3nn(C)c(=O)c4ccncc34)CC2)c1` [Compound 173, 4-(4-(3-methoxyphenyl)piperazine-1-carbonyl)-2-methylpyrido[3,4-d]pyridazin-1(2H)-one], the IC50 in assay [1] is not above 1 µM; in assay [2], 1 to 10 µM.

As to `CCn1nc(C(=O)N2CCN(c3cc(Cl)cc(C#N)c3)CC2)c2cnccc2c1=O` [Compound 244], the IC50 in assay [1] and in assay [2] was not above 1 µM in each case.

For the compound `COc1cc(N2CCN(C(=O)c3nn(C)c(=O)c4ccc(F)cc34)CC2)ccn1` [Compound 163], the half-inhibitory concentration (IC50) in assay [1] and in assay [2] was more than 20 µM in each case.

On to `CCn1nc(C(=O)N2CCN(c3ncncc3C)CC2)c2ccccc2c1=O` [Compound 113], for which the IC50 in assay [1] and in assay [2] was more than 20 µM each time.

As for `CCn1nc(C(=O)N2CCN(c3c(C)cccc3OC)CC2)c2ccccc2c1=O` [Compound 154], the IC50 in assay [1] and in assay [2] was 1 to 10 µM in each case.

Consider `CCn1nc(C(=O)N2CCN(c3cc(C)ccn3)CC2)c2ccccc2c1=O` [Compound 110], for which the concentration for half-maximal inhibition (IC50) in assay [1] and in assay [2] was 1 to 10 µM each time.

Take `Cc1ccc(N2CCN(C(=O)c3nn(C)c(=O)c4ccccc34)CC2)cc1` [Compound 10, 2-methyl-4-[4-(p-tolyl)piperazine-1-carbonyl]phthalazin-1-one]: the concentration for half-maximal inhibition (IC50) in assay [1] and in assay [2] was more than 20 µM throughout.

For `CCn1nc(C(=O)N2CCN(c3cc(F)ccc3OC)CC2)c2ccccc2c1=O` [Compound 121], the IC50 in assay [1] and in assay [2] was not above 1 µM each time.

Consider `Cn1nc(C(=O)N2CCN(c3cc(F)cc(Cl)c3)CC2)c2cnccc2c1=O` [Compound 222], for which the half-inhibitory concentration (IC50) in assay [1] and in assay [2] was not above 1 µM in each case.

As to `Cn1nc(C(=O)N2CCN(c3ccccc3C3CC3)CC2)c2cnccc2c1=O` [Compound 177], the half-inhibitory concentration (IC50) in assay [1] and in assay [2] was not above 1 µM in each case.

Regarding `CCn1nc(C(=O)N2CCN(c3cccc(OC)c3Br)CC2)c2ccccc2c1=O` [Compound 153], the IC50 in assay [1] and in assay [2] was 1 to 10 µM in each case.

With `Cc1cncc(N2CCN(C(=O)c3nn(C)c(=O)c4ccc(F)cc34)CC2)c1C` [Compound 208], the IC50 in assay [1] was not above 1 µM; in assay [2], 1 to 10 µM.

For `Cn1nc(C(=O)N2CCN(c3ccc(F)cc3C3CC3)CC2)c2ccccc2c1=O` [Compound 60], the IC50 in assay [1] and in assay [2] was not above 1 µM in each case.

In the case of `COc1ccccc1N1CCN(C(=O)c2nn(C)c(=O)c3ncccc23)CC1` [Compound 183], the IC50 was 10 to 20 µM in assay [1] and more than 20 µM in assay [2].

Take `CCn1nc(C(=O)N2CCN(c3cccc(F)c3OC)CC2)c2ccccc2c1=O` [Compound 138]: the IC50 in assay [1] and in assay [2] was not above 1 µM in each case.

Take `CCn1nc(C(=O)N2CCN(c3cc(OC)ncc3F)CC2)c2ccccc2c1=O` [Compound 152]: the IC50 in assay [1] and in assay [2] was more than 20 µM throughout.

Consider `O=C(c1nn(C2COC2)c(=O)c2ccccc12)N1CCN(c2ccccc2)CC1` [Compound 8], for which the concentration for half-maximal inhibition (IC50) in assay [1] and in assay [2] was more than 20 µM throughout.

Turning to `COc1ccc(C#N)cc1N1CCN(C(=O)c2nn(C)c(=O)c3ccccc23)CC1` [Compound 70], the IC50 in assay [1] and in assay [2] was not above 1 µM in each case.

For `CC(C)n1nc(C(=O)N2CCN(c3ccccc3)CC2)c2ccccc2c1=O` [Compound 4], the IC50 in assay [1] is 10 to 20 µM; in assay [2], more than 20 µM.

`COc1ccccc1C1=CCN(C(=O)c2nn(C)c(=O)c3ccccc23)CC1` [Compound 247, 4-(4-(2-methoxyphenyl)-1,2,3,6-tetrahydropyridine-1-carbonyl)-2-methylphthalazin-1(2H)-one]: the IC50 in assay [1] and in assay [2] was not above 1 µM in each case.

As for `Cn1nc(C(=O)N2CCN(c3cc(C#N)cc(C4CC4)c3)CC2)c2ccccc2c1=O` [Compound 206], the IC50 in assay [1] and in assay [2] was not above 1 µM throughout.

Turning to `COc1nccnc1N1CCN(C(=O)c2nn(C)c(=O)c3ccccc23)CC1` [Compound 16], the IC50 in assay [1] lay in the range of 1 to 10 µM; in assay [2] it was 10 to 20 µM.

Regarding `CCn1nc(C(=O)N2CCN(c3ccc(OCCOC)cc3Cl)CC2)c2ccccc2c1=O` [Compound 127], the IC50 in assay [1] and in assay [2] was more than 20 µM each time.

As for `CCn1nc(C(=O)N2CCN(c3cccc(C4CC4)c3)CC2)c2ccccc2c1=O` [Compound 116, 4-(4-(3-cyclopropylphenyl)piperazine-1-carbonyl)-2-ethylphthalazin-1(2H)-one], the IC50 in assay [1] and in assay [2] was not above 1 µM throughout.

On to `Cn1nc(C(=O)N2CCN(c3ncc(F)cc3C3CC3)CC2)c2ccccc2c1=O` [Compound 19], for which the IC50 in assay [1] is not above 1 µM; in assay [2] it was 1 to 10 µM.

Regarding `CCn1nc(C(=O)N2CCN(c3ncc(C#N)cc3F)CC2)c2ccccc2c1=O` [Compound 86], the IC50 in assay [1] and in assay [2] was more than 20 µM throughout.

`Cn1nc(C(=O)N2CCN(c3cc(F)cc(C#N)c3)CC2)c2ccccc2c1=O` [Compound 61, 3-fluoro-5-(4-(3-methyl-4-oxo-3,4-dihydrophthalazine-1-carbonyl)piperazin-1-yl)benzonitrile]: the IC50 in assay [1] and in assay [2] was not above 1 µM each time.

`CCn1nc(C(=O)N2CCN(c3ncc(F)cc3OC)CC2)c2ccccc2c1=O` [Compound 114]: the IC50 is not above 1 µM in assay [1] and 1 to 10 µM in assay [2].

For the compound `CCn1nc(C(=O)N2CCN(c3ccc(F)c4c3OCC4)CC2)c2ccccc2c1=O` [Compound 186, 2-ethyl-4-(4-(4-fluoro-2,3-dihydrobenzofuran-7-yl)piperazine-1-carbonyl)phthalazin-1(2H)-one], the half-inhibitory concentration (IC50) in assay [1] and in assay [2] was not above 1 µM in each case.
